Results from US7605265B2, “Heterodimers and methods of using them” (priority 2007, dated 2009).

Assays:
NMDA receptor = target: T1, NMDA receptor (Rattus norvegicus, UniProt P35439); assay: Whole cell patch clamp, NMDA-induced current in hippocampal neurons; assay type: cell-based; conditions: DIV10-14 rat hippocampal neurons, NMDA 50 μM, compound 10 μg/mL; FIG. 1
T1 construct: Hippocampal neurons from embryonic day 18 rats were isolated, trypsinized, plated onto 35-mm plates; endogenous in cells; host or cells: primary hippocampal neurons from embryonic day 18 rats, DIV10-14
Procedure: The NMDA receptor is a gated ion channel, which allows inflow of current during a nerve impulse. Antagonists to the receptor would prevent the inflow of current. Memantine, a known NMDA antagonist was used as the positive control.
Hippocampal neurons from embryonic day 18 rats were isolated, trypsinized, plated onto 35-mm plates at a density of 3×10^4 cells/plate and cultured in Neurobasal medium (NB) supplemented with B27 nutrient. DIV10-14 rat hippocampal neurons were treated with NMDA (50 μM) in the absence or presence of the novel compounds (Cpd A, B and C) (10 μg/mL). Data is presented as % of NMDA-induced current. DMSO is the solvent control.

transient focal ischemia = assay: MCAO (middle carotid artery occlusion model), transient focal ischemia; assay type: in vivo, mice
Procedure: The MCAO (middle carotid artery occlusion model) was performed to investigate the protective effects of compounds A, B and C on the brain when the brain was exposed to transient focal ischemia (lack of oxygen), emulating brain conditions during a stroke. […] The ability of the novel compounds to protect against the appearance of these neurological deficits was examined using a four-point scale neurological scoring system (Mann Whitney U test). For each of the following observable signs, the distribution of test subjects was noted (with and without treatment with the invention after ischemia): (0) no observable neurological deficits (normal); (1) failure to extend the left forepaw fully (mild); (2) circling to the contralateral side (moderate); and (3) loss of walking and righting reflex (severe). • (ii) The brains of the test subjects slices were sectioned into five pieces and the infarct area and volume of each slice was measured. The % of infarct area in test subjects treated with the invention after ischemia was compared to that of the control group for each brain slice. • (iii) Hemispheric brain swelling and infarct volume (the area of dead tissue caused by inadequate blood supply) was measured for test subjects treated with the invention after ischemia, and compared to that of the control group.
The compounds were administered 5 minutes after ischemia, 5 minutes after reperfusion, or 6 hours after ischemia. FIGS. 5a to 5f show results for the heterodimers compound B, C or A respectively, when administered 5 minutes after ischemia or reperfusion. FIGS. 5g and 5h show the results when the novel heterodimers were administered 6 hours after ischemia.
Compound B was administered at 5 minutes after ischemia. Distribution of neurological scores based on a four-point scale neurological scoring system (Mann Whitney U test): (0) no observable neurological deficits (normal); (1) failure to extend the left forepaw fully (mild); (2) circling to the contralateral side (moderate); and (3) loss of walking and righting reflex (severe).
The brain was sectioned into five pieces, each 2-mm thick. The infarct area of each posterior surface was analyzed by an image analysis program. The percentage of infarct area and volume were calculated and presented as the percentage of the infarct area of the contralateral hemisphere to eliminate the contribution of edema to the ischemic lesion.
The infarct area of each posterior surface was analyzed by an image analysis program. Hemispheric brain swelling was calculated as follows (ipsilateral volume−contralateral volume)/contralateral volume×100%.

[1] = target: T2, acetylcholinesterase (AChE) (Rattus norvegicus, UniProt P37136); assay: In vitro inhibition of AChE (cholinesterase assay, Ellman method); assay type: biochemical
T2 construct: from tissue; host or cells: rat brain cortex
T2 sequence (P37136 32-614): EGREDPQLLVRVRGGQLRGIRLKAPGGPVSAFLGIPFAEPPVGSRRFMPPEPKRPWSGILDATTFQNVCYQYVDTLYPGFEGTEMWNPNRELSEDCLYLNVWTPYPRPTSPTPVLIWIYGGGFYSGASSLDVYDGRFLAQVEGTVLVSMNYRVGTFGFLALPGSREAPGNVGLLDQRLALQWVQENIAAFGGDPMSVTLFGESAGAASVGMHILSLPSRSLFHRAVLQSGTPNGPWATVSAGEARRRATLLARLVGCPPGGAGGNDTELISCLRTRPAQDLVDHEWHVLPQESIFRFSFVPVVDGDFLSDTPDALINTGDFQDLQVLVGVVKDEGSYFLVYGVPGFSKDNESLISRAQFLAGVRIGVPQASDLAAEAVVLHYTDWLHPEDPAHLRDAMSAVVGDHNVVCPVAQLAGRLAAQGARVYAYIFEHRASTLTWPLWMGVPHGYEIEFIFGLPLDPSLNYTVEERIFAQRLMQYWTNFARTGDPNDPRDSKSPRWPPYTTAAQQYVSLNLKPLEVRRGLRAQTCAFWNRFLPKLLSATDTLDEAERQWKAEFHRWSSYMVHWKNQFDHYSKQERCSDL
Procedure: The in vitro inhibition of the enzymes acetylcholinesterase (AChE) and butyrylcholinesterase (BChE) were assessed. BChE, like AChE, breaks down acetylcholine (ACh) but is found in plasma and other organs such as the liver, skin and gastrointestinal tract.
The enzymes, AChE and BChE, used in the inhibition studies were prepared from the cortex and serum of decapitated rats, respectively.

[2] = 0.005 μg/kg, 5 minutes after reperfusion
[3] = 0.005 μg/kg, 6 hours after ischemia
[4] = 0.05 μg/kg, 5 minutes after reperfusion
[5] = 0.05 μg/kg, 6 hours after ischemia

In the case of `O=c1ccc2c([nH]1)CCCC2NCCCCCCCCNc1c2c(nc3cc(Cl)ccc13)CCCC2` (stereo not drawn) [Compound C], the NMDA-induced current (NMDA receptor) is reported as “decreased NMDA-induced current in hippocampal neurons”, the “% Infarct area in brain slice # 1” value (transient focal ischemia; [2]) is reported as 18.8 ± 3.3% and the “% Infarct area in brain slice # 2” value (transient focal ischemia; [2]) is reported as 47.8 ± 3.0%. For the same molecule, the “% Infarct area in brain slice # 3” value (transient focal ischemia; [2]) was 45.4 ± 1.8%, the “% Infarct area in brain slice # 4” value (transient focal ischemia; [2]) was 18.5 ± 3.8 % and the “% Infarct area in brain slice # 5” value (transient focal ischemia; [2]) was 0.6 ± 0.5%. For the same molecule, the “Hemispheric swelling (%)” value (transient focal ischemia; [2]) was 7.1 ± 1.0 %, the “Infarct volume (%)” value (transient focal ischemia; [2]) was 30.1 ± 1.5 % and the “Observed Neurological Deficits Mean ± SEM” value (transient focal ischemia; [2]) was 1.0 ± 0.0. The “Observed Neurological Deficits, score 0 (number of animals)” value (transient focal ischemia; [2]) was 0, the “Observed Neurological Deficits, score 1 (number of animals)” value (transient focal ischemia; [2]) was 9 and the “Observed Neurological Deficits, score 2 (number of animals)” value (transient focal ischemia; [2]) was 0. For the same molecule, the “Observed Neurological Deficits, score 3 (number of animals)” value (transient focal ischemia; [2]) was 0, the “n (dead/total): dead/total” value (transient focal ischemia; [2]) was 9 (1/10) and the “% Infarct area in brain slice # 1” value (transient focal ischemia; [3]) was 15.9 ± 4.0%. The “% Infarct area in brain slice # 2” value (transient focal ischemia; [3]) was 40.2 ± 7.9%, the “% Infarct area in brain slice # 3” value (transient focal ischemia; [3]) was 35.5 ± 5.3 % and the “% Infarct area in brain slice # 4” value (transient focal ischemia; [3]) was 12.5 ± 4.9 %. The “% Infarct area in brain slice # 5” value (transient focal ischemia; [3]) was −0.8 ± 0.8%, the “Hemispheric swelling (%)” value (transient focal ischemia; [3]) was 6.2 ± 1.2% and the “Infarct volume (%)” value (transient focal ischemia; [3]) was 23.9 ± 4.3 %. The “Observed Neurological Deficits Mean ± SEM” value (transient focal ischemia; [3]) was 1.3 ± 0.2, the “Observed Neurological Deficits, score 0 (number of animals)” value (transient focal ischemia; [3]) was 0 and the “Observed Neurological Deficits, score 1 (number of animals)” value (transient focal ischemia; [3]) was 6. For the same molecule, the “Observed Neurological Deficits, score 2 (number of animals)” value (transient focal ischemia; [3]) was 2, the “Observed Neurological Deficits, score 3 (number of animals)” value (transient focal ischemia; [3]) was 0 and the “n (dead/total): dead/total” value (transient focal ischemia; [3]) was 8 (1/9). The “% Infarct area in brain slice # 1” value (transient focal ischemia; [4]) was 12.8 ± 3.3%, the “% Infarct area in brain slice # 2” value (transient focal ischemia; [4]) was 54.0 ± 4.1% and the “% Infarct area in brain slice # 3” value (transient focal ischemia; [4]) was 51.4 ± 3.1%. For the same molecule, the “% Infarct area in brain slice # 4” value (transient focal ischemia; [4]) was 26.2 ± 6.7%, the “% Infarct area in brain slice # 5” value (transient focal ischemia; [4]) was −1.0 ± 0.8% and the “Hemispheric swelling (%)” value (transient focal ischemia; [4]) was 7.4 ± 1.0 %. The “Infarct volume (%)” value (transient focal ischemia; [4]) was 34.5 ± 3.7%, the “Observed Neurological Deficits Mean ± SEM” value (transient focal ischemia; [4]) was 1.3 ± 0.2 and the “Observed Neurological Deficits, score 0 (number of animals)” value (transient focal ischemia; [4]) was 0. The “Observed Neurological Deficits, score 1 (number of animals)” value (transient focal ischemia; [4]) was 4, the “Observed Neurological Deficits, score 2 (number of animals)” value (transient focal ischemia; [4]) was 2 and the “Observed Neurological Deficits, score 3 (number of animals)” value (transient focal ischemia; [4]) was 0. For the same molecule, the “n (dead/total): dead/total” value (transient focal ischemia; [4]) was 6 (1/7), the “% Infarct area in brain slice # 1” value (transient focal ischemia; [5]) was 11.7 ± 3.3% and the “% Infarct area in brain slice # 2” value (transient focal ischemia; [5]) was 38.0 ± 6.8 %. The “% Infarct area in brain slice # 3” value (transient focal ischemia; [5]) was 32.5 ± 6.6 %, the “% Infarct area in brain slice # 4” value (transient focal ischemia; [5]) was 16.8 ± 6.0% and the “% Infarct area in brain slice # 5” value (transient focal ischemia; [5]) was 0.5 ± 0.4%. The “Hemispheric swelling (%)” value (transient focal ischemia; [5]) was 5.0 ± 1.2%, the “Infarct volume (%)” value (transient focal ischemia; [5]) was 23.5 ± 4.4 % and the “Observed Neurological Deficits Mean ± SEM” value (transient focal ischemia; [5]) was 1.3 ± 0.2. For the same molecule, the “Observed Neurological Deficits, score 0 (number of animals)” value (transient focal ischemia; [5]) was 0, the “Observed Neurological Deficits, score 1 (number of animals)” value (transient focal ischemia; [5]) was 6 and the “Observed Neurological Deficits, score 2 (number of animals)” value (transient focal ischemia; [5]) was 2. For the same molecule, the “Observed Neurological Deficits, score 3 (number of animals)” value (transient focal ischemia; [5]) was 0, the “n (dead/total): dead/total” value (transient focal ischemia; [5]) was 8 (1/9) and the “infarct area in brain slices (in words)” value (transient focal ischemia; 5 minutes after reperfusion, FIG. 5c) was “reduction in infarct area of brain slices #4”. The “infarct size and hemispheric swelling (in words)” value (transient focal ischemia; 5 minutes after reperfusion, FIG. 5d) was “reduced infarct size and hemispheric swelling”, the “infarct area (in words)” value (transient focal ischemia; 6 hours after ischemia, FIG. 5g) was “improvement in the infarct area” and the “infarct volume (in words)” value (transient focal ischemia; 6 hours after ischemia, FIG. 5h) was “decreases infarct volume”. For the same molecule, the “neurological deficits induced by ischemia (in words)” value (transient focal ischemia; administered 5 minutes after reperfusion) was “reduced neurological deficits induced by ischemia”, the “neurological deficits (in words)” value (transient focal ischemia; administration 6 hours after ischemia) was “reduced neurological deficits” and the “times more potent than bis(7)-tacrine” value ([1]; AChE inhibition) was ~1039. The “times more potent than tacrine” value ([1]; AChE inhibition) was ~11000, the “Selectivity AchE*” value ([1]; IC50 (BChE)/IC50 (AChE)) was 50317.32 and the IC50 ([1]; enzyme prepared from rat cortex) was 0.0127 ± 0.002 nM.
